Laboratory results from patent publication US5861269A, “Methods for removing interferences due to endogenous dehydrogenases in enzyme assays” (Dade Behring Marburg GmbH, priority 1996, dated 1999).

Columns and labels:
[1] = tested on: α-glycerophosphate dehydrogenase; conditions: Bacchi et al., J. Bacteriol. 98(1), 23-28 (1969); cited from earlier work
malate dehydrogenase = conditions: Bacchi et al., J. Bacteriol. 98(1), 23-28 (1969); cited from earlier work
[2] = tested on: endogenous dehydrogenases; experiment: Emit Ethyl Alcohol Assay with inhibitor, whole blood samples; assay type: biochemical; conditions: whole blood ethanol samples
Experimental: (§1) The ability of inhibitors to prevent false positive results with samples containing endogenous dehydrogenases was determined by employing the Emit® Ethyl Alcohol Assay available from Syva Company, San Jose, Calif. (Part No. 9K219). The assays were performed on the Cobas Mira-S analyzer (Roche Diagnostics Inc., Nutley, N.J.) according to the manufacturer's instructions using the protocol provided by Syva Company. Briefly, the Emit® Ethyl Alcohol Assay consists of two reagents, Reagent 1 and Reagent 2. Reagent 1 contains Tris buffer, stabilizers and preservatives. Reagent 2 contains alcohol dehydrogenase, nicotinamide adenine dinucleotide (NAD^+), bulking agents, stabilizers, surfactants and preservatives. Reagent 2 is shipped in dry form and is reconstituted according to the manufacturer's instructions. To perform the assay, Reagent 1 and Reagent 2 %ere added to the sample. Following mixing and incubation, the change in absorbance at 340 nm was monitored. The reaction is linear, and calibration was achieved by single point calibration using a 100 mg/dL (0.10%) calibrator, supplied by Syva Company. The calculation of results was not required. The instrument prints the quantitative result.
In the following examples, results reported under the column Current Emit® refer to results observed using the Emit® Ethyl Alcohol assay in the absence of inhibitor. […]

[3] = tested on: endogenous dehydrogenases; experiment: Emit Ethyl Alcohol Assay with inhibitor, serum samples falsely elevated by endogenous dehydrogenases; assay type: biochemical; conditions: inhibitor in Reagent 1
Experimental: as §1, with “(Part” for “The ability of inhibitors to prevent false positive results with samples containing endogenous dehydrogenases was determined by employing the Emit® Ethyl Alcohol Assay available from Syva Company, San Jose, Calif. (Part”
Results reported under the column GC refer to confirmatory results obtained using gas chromatography.
Agaric acid was dissolved in Emit® Ethyl Alcohol Reagent 1 by stirring with heat to a concentration of 25 mM. […] The solution was cooled to room temperature. The pH of the solution was measured and adjusted to the pH of the Emit® Ethyl Alcohol Reagent 1 (pH 9.0) with a small volume of 10N NaOH. […] These discrepant samples were analyzed using the Emit® Ethyl Alcohol Assay side by side with the assay containing agaric acid.

Structure (SMILES)	Inhibition of α-glycerophosphate dehydrogenase [1]	Inhibition of malate dehydrogenase (malate dehydrogenase)	Accuracy of the Emit Ethyl Alcohol Assay versus current Emit product [2]	Effect on elevated (false-positive) ethanol results of the Emit Ethyl Alcohol Assay [3]
CCCCCCCCCCCCCCCCC(C(=O)O)C(O)(CC(=O)O)C(=O)O (centres unmarked) [Agaric Acid, Agaric acid]	highly inhibitory	highly inhibitory	improved accuracy	eliminated
CCCCCCCCCCCC(=O)O [Lauric Acid, Lauric acid]				eliminated
CCCC/C=C\CCCCCCCC(=O)O [Myristoleic Acid, myristoleic acid]				eliminated
CCCCCCCCCCCCOS(=O)(=O)[O-].[Na+] [SDS, sodium dodecyl sulfate]				eliminated
CCCCCCCCCCOS(=O)(=O)[O-].[Na+] [Sodium Decyl Sulfate, sodium decyl sulfate]				eliminated
